pIC50: −log10 of the molar value.
What was measured:
Format in all cases: cell-based
PR-B = target: T1, PR-B (Homo sapiens, UniProt P06401); experiment: Direct inhibition of PR-B transcriptional activity, CV-1 cells; design: expressed in transfected cells; host or cells: CV-1, HepG2 (PRE2 tk-LUC); HeLa, also HepG2 and CV-1 (TAT promoter); details: read-out: IC50 (50% maximal Inhibitory concentration), transcriptional activity of PR-B; in the presence of 10^-8 progesterone
T1 sequence (P06401 1-933): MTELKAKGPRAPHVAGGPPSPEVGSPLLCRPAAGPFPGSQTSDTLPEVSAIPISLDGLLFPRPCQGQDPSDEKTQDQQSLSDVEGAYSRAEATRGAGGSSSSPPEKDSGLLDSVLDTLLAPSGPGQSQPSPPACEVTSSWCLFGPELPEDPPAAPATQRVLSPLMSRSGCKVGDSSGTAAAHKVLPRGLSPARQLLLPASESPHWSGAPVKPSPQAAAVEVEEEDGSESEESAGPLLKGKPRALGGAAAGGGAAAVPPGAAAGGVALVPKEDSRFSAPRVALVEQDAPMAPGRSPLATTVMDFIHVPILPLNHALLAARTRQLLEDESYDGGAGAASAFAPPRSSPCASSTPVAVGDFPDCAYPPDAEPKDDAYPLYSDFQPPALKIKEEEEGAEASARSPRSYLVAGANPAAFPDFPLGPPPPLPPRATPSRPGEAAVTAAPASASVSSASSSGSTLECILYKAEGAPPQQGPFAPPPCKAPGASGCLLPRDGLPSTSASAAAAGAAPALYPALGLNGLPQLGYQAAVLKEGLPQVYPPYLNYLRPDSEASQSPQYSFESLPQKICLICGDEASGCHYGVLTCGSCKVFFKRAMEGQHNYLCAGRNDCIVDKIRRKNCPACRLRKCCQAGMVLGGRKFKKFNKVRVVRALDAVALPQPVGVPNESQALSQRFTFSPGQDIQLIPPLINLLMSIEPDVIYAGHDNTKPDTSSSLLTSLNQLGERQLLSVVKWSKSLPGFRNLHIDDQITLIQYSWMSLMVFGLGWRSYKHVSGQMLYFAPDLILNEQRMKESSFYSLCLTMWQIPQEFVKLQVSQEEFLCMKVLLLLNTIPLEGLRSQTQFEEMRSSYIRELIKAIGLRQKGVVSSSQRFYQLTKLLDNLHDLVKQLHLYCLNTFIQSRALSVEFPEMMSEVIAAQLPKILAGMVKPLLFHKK

human estrogen receptor = experiment: ER transcriptional activity on MMTV-ERE-LUC, CV-1 cells, ER co-expressed with PR-A
Protocol: All values were normalized for transfection efficiency by simultaneous estimation of luciferase and β-galactocidase activities. The relative luciferase activity is calculated by dividing the normalized luciferase value at a given point by that obtained in the absence of transfected receptor or ligand. Data shown represent the mean +/- the average deviation from the mean of triplicate estimations.
Experimental protocols and data calculation are as described in FIG. 11. The experiment detailed above is representative of independent assays (N>3). Data shown represent the mean +/- the average deviation from the mean of triplicate estimations.
Vegeto et al., supra. Cells were plated into 96-well tissue culture plates. The vector DNA was introduced into the CV-1 cells using calcium phosphate coprecipitation as described herein. More specifically, 20 μg of DNA/ml of transfection buffer were used in each transfection. Each transfection mix included 0.5 μg of pRST7hER, 9.5 μg of MMTV-ERE-LUC, 5 μg of pCH110, (which contains the gene for β-galactosidase) as an internal control and 5 μg of PGEM4 DNA as a carrier. Depending on the experiment, 0.1 μg pSVhPR-A or pSVhPR-B and an amount of pSVXV2neo (Dr. Bert O'Malley, Baylor College of Medicine) to bring the total amount of DNA to 20 μg was added. The concentration of pXVhPR-A vector chosen was determined by performing the experiment at several different concentrations of vector, and then using that concentration that was optimal for transcriptional readout. The concentration of pSVhPR-B vector was chosen based upon the amount required to give an identical amount of immunoreactive PR-A and PR-B. After transfections using a Biomek 1000 automated laboratory workstation, the cells were incubated with the precipitate for 6 hours. Cells were washed with PBS and incubated for 40 hours with or without hormones as indicated. Cell extracts were prepared as previously described herein and assayed for luciferase (LUC) and β-galactosidase activities. The Normalized LUC activity was calculated by dividing the raw luciferase (×10^4) units for each point by the β-galactosidase activity [(OD415 nm ×10^5)/time min.] at that point.

ER = ER transcriptional activity on MMTV-ERE-LUC in HepG2 and HS578T cells; details: data not shown

SMILES	pIC50 (PR-B)	pIC50 (human estrogen receptor; 10^-7 M 17-β-estradiol, read-out: half maximal inhibition (IC50) of ER in the presence of hPR-A)	efficacy compared to the pure anti-estrogen ICI-164,384 (human estrogen receptor; PR-A co-expressed, 100% = 10^-7 M 17-β-estradiol + 10^-6 M ICI-164,384, FIG. 12)	anti-estrogenic activity (ER; HS578T cells)	anti-estrogenic activity (ER; HepG2 cells)	maximal inhibition of ER activation by 17-β-estradiol (human estrogen receptor; 10 nM progesterone, hPR-A co-expressed, 10^-7 M 17β-estradiol, FIG. 11C) [%]
CC#C[C@]1(O)CC[C@H]2[C@@H]3CCC4=CC(=O)CCC4=C3[C@@H](c3ccc(C(C)=O)cc3)C[C@@]21C [ZK112993]	9.22	9.30	greater than 80%	both anti-progestins functioned as anti-estrogens	neither anti-progestin exhibited any anti-estrogenic activity	–
CC(=O)[C@H]1CC[C@H]2[C@@H]3CCC4=CC(=O)CC[C@]4(C)[C@H]3CC[C@]12C [progesterone]	–	–	–	–	–	55

Source: patent publication US5506102A (priority 1993, dated 1996)
